Laboratory results from PubChem BioAssay AID248 (DTP/NCI, 2004).
Several values for one entry are separate records, joined by “and”; a condition that tells them apart may be missing. Identical values can stand only once. Toxic doses and inconclusive results are not listed. No stated cut-off is given here; in the data, active means T/C of 150% or more; inactive means T/C below 125%. Peptide text beside a SMILES is read from it. * marks the point of attachment. Cbz = O=C(OCc1ccccc1)*

Tested on: L1210 leukemia ip in BDF1 mice, survival T/C
Experiment: NCI In Vivo Anticancer Drug Screen. Data for tumor model L1210 Leukemia (intraperitoneal) in B6D2F1 (BDF1) mice
Details: endpoint: mean survival time, higher = longer survival
Method in brief: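 Antitumor effect is assessed in tumor-bearing animals. Survival in the compound arm is compared with a vehicle-dosed control arm and expressed as their quotient.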

[1] = dose: 100.0 mg/kg/injection, schedule: Q01DX001 (ip), vehicle: other
[2] = dose: 200.0 mg/kg/injection, schedule: Q01DX001 (ip), vehicle: other
[3] = dose: 400.0 mg/kg/injection, schedule: Q01DX001 (ip), vehicle: other
[4] = dose: 100.0 mg/kg/injection, schedule: Q01DX009 (ip), vehicle: Klucel (hydroxypropylcellulose) (HPC)
[5] = dose: 200.0 mg/kg/injection, schedule: Q01DX009 (ip), vehicle: Klucel (hydroxypropylcellulose) (HPC)
[6] = dose: 100.0 mg/kg/injection, schedule: Q04DX003 (ip), vehicle: Klucel (hydroxypropylcellulose) (HPC)
[7] = dose: 200.0 mg/kg/injection, schedule: Q04DX003 (ip), vehicle: Klucel (hydroxypropylcellulose) (HPC)
[8] = dose: 400.0 mg/kg/injection, schedule: Q04DX003 (ip), vehicle: Klucel (hydroxypropylcellulose) (HPC)
[9] = dose: 100.0 mg/kg/injection, schedule: Q01DX001 (ip), vehicle: carboxymethylcellulose (CMC)
[10] = dose: 200.0 mg/kg/injection, schedule: Q01DX001 (ip), vehicle: saline
[11] = dose: 100.0 mg/kg/injection, schedule: Q01DX001 (ip), vehicle: Klucel (hydroxypropylcellulose) (HPC)

Measured: T/C

O=C(CCN1CC1)OCCCCOC(=O)CCN1CC1
inactive: dose: 2.5 mg/kg/injection, schedule: Q01DX009 (ip), vehicle: saline 113 % of control | dose: 5.0 mg/kg/injection, schedule: Q01DX009 (ip), vehicle: saline 110 % of control | dose: 6.6 mg/kg/injection, schedule: Q01DX009 (ip), vehicle: saline 94 % of control and 102 % of control | dose: 10.0 mg/kg/injection, schedule: Q01DX009 (ip), vehicle: saline 102 % of control | dose: 15.0 mg/kg/injection, schedule: Q01DX009 (ip), vehicle: saline 100 % of control and 107 % of control | dose: 20.0 mg/kg/injection, schedule: Q01DX009 (ip), vehicle: saline 104 % of control | dose: 20.0 mg/kg/injection, schedule: Q04DX003 (ip), vehicle: saline 115 % of control | dose: 40.0 mg/kg/injection, schedule: Q04DX003 (ip), vehicle: saline 104 % of control | dose: 80.0 mg/kg/injection, schedule: Q04DX003 (ip), vehicle: saline 91 % of control

Oc1ccc2ccccc2c1C=Nc1ccccc1
inactive: [1] 91 % of control | [2] 98 % of control | [3] 96 % of control

CC1(C)N=C(N)N=C(N)N1c1ccc(CCCCc2ccc(S(=O)(=O)F)cc2)cc1
inactive: dose: 50.0 mg/kg/injection, schedule: Q01DX009 (ip), vehicle: saline 113 % of control | dose: 100.0 mg/kg/injection, schedule: Q01DX009 (ip), vehicle: saline 106 % of control

CC1CC(NC(=S)N(C)C)CC(C)(C)C1 (configuration not stated)
inactive: dose: 50.0 mg/kg/injection, schedule: Q01DX009 (ip), vehicle: Klucel (hydroxypropylcellulose) (HPC) 92 % of control | [4] 100 % of control | [5] 102 % of control

O=C1C(=O)C(C(=O)c2ccccc2)C(=O)C1C(=O)c1ccccc1 (configuration not stated)
inactive: dose: 55.0 mg/kg/injection, schedule: Q01DX Z (ip), vehicle: saline 109 % of control | dose: 83.0 mg/kg/injection, schedule: Q01DX Z (ip), vehicle: saline 100 % of control | dose: 125.0 mg/kg/injection, schedule: Q01DX Z (ip), vehicle: saline 93 % of control

O=[N+]([O-])c1ccc(C=Nc2ccc(C(c3ccccc3)(c3ccccc3)c3ccccc3)cc2)s1
inactive: [6] 95 % of control | [7] 97 % of control | [8] 93 % of control

Cc1ccc(C(=O)Oc2ccc(Cl)c(C)c2Cl)cc1
inactive: dose: 75.0 mg/kg/injection, schedule: Q01DX001 (ip), vehicle: carboxymethylcellulose (CMC) 91 % of control | dose: 150.0 mg/kg/injection, schedule: Q01DX001 (ip), vehicle: carboxymethylcellulose (CMC) 92 % of control | dose: 300.0 mg/kg/injection, schedule: Q01DX001 (ip), vehicle: carboxymethylcellulose (CMC) 92 % of control

Cc1cc(Cc2cc(C)c(C)c(C)c2C)c(C)c(C)c1C
inactive: [1] 96 % of control | [2] 95 % of control | [3] 90 % of control

O=C(O)/C(=C\c1cccnc1)NC(=O)c1ccccc1
inactive: dose: 100.0 mg/kg/injection, schedule: Q04DX002 (ip), vehicle: Klucel (hydroxypropylcellulose) (HPC) 90 % of control | dose: 200.0 mg/kg/injection, schedule: Q04DX002 (ip), vehicle: Klucel (hydroxypropylcellulose) (HPC) 101 % of control | dose: 400.0 mg/kg/injection, schedule: Q04DX002 (ip), vehicle: Klucel (hydroxypropylcellulose) (HPC) 96 % of control

C=C1C[C@]23C[C@@]1(O)CC[C@H]2[C@@]12C=C[C@H](O)[C@@](C)(C(=O)O1)[C@H]2[C@@H]3C(=O)O
inactive: [9] 94 % of control | dose: 100.0 mg/kg/injection, schedule: Q01DX001 (ip), vehicle: saline 104 % of control | dose: 100.0 mg/kg/injection, schedule: Q01DX009 (ip), vehicle: acetone 97 % of control | dose: 200.0 mg/kg/injection, schedule: Q01DX001 (ip), vehicle: carboxymethylcellulose (CMC) 96 % of control | [10] 104 % of control | dose: 200.0 mg/kg/injection, schedule: Q01DX009 (ip), vehicle: acetone 94 % of control | dose: 400.0 mg/kg/injection, schedule: Q01DX001 (ip), vehicle: carboxymethylcellulose (CMC) 94 % of control | dose: 400.0 mg/kg/injection, schedule: Q01DX001 (ip), vehicle: saline 104 % of control | dose: 400.0 mg/kg/injection, schedule: Q01DX009 (ip), vehicle: acetone 95 % of control | dose: 800.0 mg/kg/injection, schedule: Q01DX009 (ip), vehicle: acetone 92 % of control

N#CCCN(CCCN1CCOCC1)CN1C(=O)c2ccccc2C1=O
inactive: dose: 100.0 mg/kg/injection, schedule: Q04DX002 (ip), vehicle: saline 104 % of control | dose: 200.0 mg/kg/injection, schedule: Q04DX002 (ip), vehicle: saline 93 % of control | dose: 400.0 mg/kg/injection, schedule: Q04DX002 (ip), vehicle: saline 111 % of control

NNC(=O)c1ccc(Cl)cc1Nc1ccccc1
inactive: [11] 95 % of control | [4] 107 % of control | dose: 200.0 mg/kg/injection, schedule: Q01DX001 (ip), vehicle: Klucel (hydroxypropylcellulose) (HPC) 86 % of control | [5] 94 % of control | dose: 400.0 mg/kg/injection, schedule: Q01DX001 (ip), vehicle: Klucel (hydroxypropylcellulose) (HPC) 97 % of control

NNC(=O)C(Sc1ccccc1)c1ccccc1 (configuration not stated)
inactive: [6] 95 % of control | [7] 98 % of control | [8] 101 % of control

CCOC(=O)CCC(NC(=O)C(CCC(=O)O)NC(=O)OCc1ccccc1)C(=O)OCC (stereo not drawn) (Cbz-Glu-Glu(OEt)-OEt; configuration not given here)
inactive: [6] 94 % of control | [7] 101 % of control | [8] 96 % of control

O=C(/C=C\c1ccccc1)C(=O)/C=C/c1ccccc1
inactive: dose: 25.0 mg/kg/injection, schedule: Q01DX009 (ip), vehicle: other 93 % of control | dose: 25.0 mg/kg/injection, schedule: Q04DX003 (ip), vehicle: Klucel (hydroxypropylcellulose) (HPC) 105 % of control | dose: 50.0 mg/kg/injection, schedule: Q01DX009 (ip), vehicle: other 98 % of control | dose: 50.0 mg/kg/injection, schedule: Q04DX003 (ip), vehicle: Klucel (hydroxypropylcellulose) (HPC) 94 % of control | [1] 89 % of control | [6] 86 % of control

CCn1cnc2c(SC3CCCC3)ncnc21
inactive: dose: 15.0 mg/kg/injection, schedule: Q01DX015 (ip), vehicle: carboxymethylcellulose (CMC) 96 % of control | dose: 30.0 mg/kg/injection, schedule: Q01DX015 (ip), vehicle: carboxymethylcellulose (CMC) 104 % of control | dose: 62.0 mg/kg/injection, schedule: Q01DX015 (ip), vehicle: carboxymethylcellulose (CMC) 110 % of control | dose: 62.0 mg/kg/injection, schedule: Q01DX Z (ip), vehicle: carboxymethylcellulose (CMC) 95 % of control | dose: 125.0 mg/kg/injection, schedule: Q01DX015 (ip), vehicle: carboxymethylcellulose (CMC) 124 % of control | dose: 125.0 mg/kg/injection, schedule: Q01DX Z (ip), vehicle: carboxymethylcellulose (CMC) 113 % of control | dose: 500.0 mg/kg/injection, schedule: Q01DX Z (ip), vehicle: carboxymethylcellulose (CMC) 101 % of control

Nc1ccc(CCc2nc(N)[nH]c(=O)c2CCCCc2ccccc2)cc1
inactive: dose: 25.0 mg/kg/injection, schedule: Q01DX001 (ip), vehicle: Klucel (hydroxypropylcellulose) (HPC) 98 % of control | dose: 50.0 mg/kg/injection, schedule: Q01DX001 (ip), vehicle: Klucel (hydroxypropylcellulose) (HPC) 96 % of control | [11] 88 % of control

CS(=O)CCNC(=O)NS(=O)(=O)c1ccc(Cl)cc1 (configuration not stated)
inactive: dose: 100.0 mg/kg/injection, schedule: Q04DX003 (ip), vehicle: saline 97 % of control | dose: 200.0 mg/kg/injection, schedule: Q04DX003 (ip), vehicle: saline 98 % of control | dose: 400.0 mg/kg/injection, schedule: Q04DX003 (ip), vehicle: saline 108 % of control

Cc1c(CN(C)C)cccc1C(=O)Nc1ccccc1
inactive: dose: 50.0 mg/kg/injection, schedule: Q01DX001 (ip), vehicle: saline 115 % of control | [10] 104 % of control

O=C(Nc1ccc(Cl)cc1[N+](=O)[O-])c1ccc2ccccc2c1O
inactive: [4] 101 % of control | [5] 111 % of control | dose: 400.0 mg/kg/injection, schedule: Q01DX009 (ip), vehicle: Klucel (hydroxypropylcellulose) (HPC) 103 % of control

O=C(O)/C(F)=C/c1ccccc1
inactive: dose: 50.0 mg/kg/injection, schedule: Q01DX001 (ip), vehicle: carboxymethylcellulose (CMC) 111 % of control | [9] 103 % of control
